# Data from patent publication US9695155B2, “Herbicidal substituted pyrimidinyloxy benzene compounds” (E. I. DU PONT DE NEMOURS AND COMPANY, priority 2013, dated 2017).
# Legend:
# soybean = test: Test C postemergence; format: in vivo, Glycine max
# How it was run: (§1)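 Rated visually on 0–100 (100 = complete control) after 13–15 days under glass. Treatments went onto freshly seeded loam/sand soil or onto emerged plants at the 1- to 4-leaf stage, using a surfactant-containing solvent formulation.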
# sedge, umbrella = test: Test B flooded paddy test; format: in vivo, Cyperus difformis; conditions: Flood, 250 g ai/ha; 0 to 100 scale where 0 is no effect and 100 is complete control
# How it was run: (§2)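 Post-emergence paddy-water application at the 2-leaf stage, with 3 cm flood kept for the whole test. Response was judged visually relative to controls after 13 to 15 greenhouse days, 0 indicating no effect and 100 complete control.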
# pigweed = test: Test A postemergence; format: in vivo, Amaranthus retroflexus; conditions: 0 to 100 scale where 0 is no effect and 100 is complete control
# How it was run: (§3)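 Visual injury scored 0–100 (100 = complete control) against untreated controls about 10 days after treatment in a greenhouse. Test chemicals, formulated with surfactant in non-phytotoxic solvent, were sprayed on soil preemergence or on 2-10 cm, one- to two-leaf plants postemergence.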
# Italian ryegrass = test: Test C postemergence; format: in vivo, Lolium multiflorum
# How it was run: as §1
# ragweed = test: Test C postemergence; format: in vivo, Ambrosia elatior
# How it was run: as §1
# lambsquarters = test: Test C postemergence; format: in vivo, Chenopodium album
# How it was run: as §1
# large (Lg) crabgrass [1] = test: Test C postemergence; format: in vivo, Digitaria sanguinalis
# How it was run: as §1
# blackgrass = test: Test C postemergence; format: in vivo, Alopecurus myosuroides
# How it was run: as §1
# large (Lg) crabgrass [2] = test: Test A postemergence; format: in vivo, Digitaria sanguinalis; conditions: 0 to 100 scale where 0 is no effect and 100 is complete control
# How it was run: as §3
# barnyardgrass [3] = test: Test C postemergence; format: in vivo, Echinochloa crus-galli
# How it was run: as §1
# barnyardgrass [4] = test: Test A preemergence; format: in vivo, Echinochloa crus-galli
# How it was run: as §3
# yellow nutsedge = test: Test C postemergence; format: in vivo, Cyperus esculentus
# How it was run: as §1
# wheat = test: Test A preemergence; format: in vivo, Triticum aestivum
# How it was run: as §3
# galium = test: Test C postemergence; format: in vivo, Galium aparine
# How it was run: as §1
# rice = test: Test B flooded paddy test; format: in vivo, Oryza sativa; conditions: Flood, 250 g ai/ha; 0 to 100 scale where 0 is no effect and 100 is complete control
# How it was run: as §2
# [5] = 16 g ai/ha, postemergence, 0 is no effect, 100 is complete control
# [6] = 31 g ai/ha, postemergence, visual rating, scale 0 to 100 (0 no effect, 100 complete control), 13 to 15 days
# [7] = 125 g ai/ha, postemergence, visual rating, scale 0 to 100 (0 no effect, 100 complete control)
# [8] = Postemergence, 62 g ai/ha, scale 0 to 100 (0 no effect, 100 complete control), 13 to 15 days
# [9] = 500 g ai/ha, 0 to 100 scale where 0 is no effect and 100 is complete control
compound,measurement,setting,value
FC(F)c1cnn(-c2c(Br)cccc2Oc2ncc(Cl)cn2)c1 [Compound 232],"Plant response rating (0 to 100), Soybean",soybean; [5],30
same,Soybean plant response rating,soybean; [6],55
same,"Plant response rating, Soybean",soybean; [7],75
same,"Plant response rating, Soybean",soybean; [8],70
same,"Plant response rating, Sedge, Umbrella","sedge, umbrella",80
same,Pigweed plant response rating,pigweed; 125 g ai/ha,100
same,"Plant response rating, Pigweed",pigweed; 500 g ai/ha,100
same,"Plant response rating (0 to 100), Ryegrass, Italian",Italian ryegrass; [5],0
same,"Ryegrass, Italian plant response rating",Italian ryegrass; [6],0
same,"Plant response rating, Ryegrass, Italian",Italian ryegrass; [7],10
same,"Plant response rating, Ryegrass, Italian",Italian ryegrass; [8],5
same,"Plant response rating (0 to 100), Ragweed",ragweed; [5],25
same,Ragweed plant response rating,ragweed; [6],35
same,"Plant response rating, Ragweed",ragweed; [7],60
same,"Plant response rating, Ragweed",ragweed; [8],50
same,"Plant response rating (0 to 100), Lambsquarters",lambsquarters; [5],55
same,Lambsquarters plant response rating,lambsquarters; [6],60
same,"Plant response rating, Lambsquarters",lambsquarters; [7],75
same,"Plant response rating, Lambsquarters",lambsquarters; [8],70
same,"Plant response rating (0 to 100), Crabgrass, Large",large (Lg) crabgrass [1]; [5],5
same,"Crabgrass, Large plant response rating",large (Lg) crabgrass [1]; [6],5
same,"Plant response rating, Crabgrass, Large",large (Lg) crabgrass [1]; [7],5
same,"Plant response rating, Crabgrass, Large",large (Lg) crabgrass [1]; [8],5
same,"Plant response rating (0 to 100), Blackgrass",blackgrass; [5],10
same,Blackgrass plant response rating,blackgrass; [6],0
same,"Plant response rating, Blackgrass",blackgrass; [7],25
same,"Plant response rating, Blackgrass",blackgrass; [8],5
same,"Crabgrass, Large plant response rating",large (Lg) crabgrass [2]; 125 g ai/ha,60
same,"Plant response rating, Crabgrass, Large",large (Lg) crabgrass [2]; 500 g ai/ha,90
same,"Plant response rating (0 to 100), Barnyardgrass",barnyardgrass [3]; [5],10
same,Barnyardgrass plant response rating,barnyardgrass [3]; [6],5
same,"Plant response rating, Barnyardgrass",barnyardgrass [3]; [7],20
same,"Plant response rating, Barnyardgrass","barnyardgrass [3]; Postemergence, 62 g ai/ha, scale 0 to 100 (0 no effect, 100 complete control)",10
same,"Barnyardgrass plant response rating (0 to 100 scale, 0 is no effect, 100 is complete control)",barnyardgrass [4]; 125 g ai/ha,60
same,Barnyardgrass plant response rating,barnyardgrass [4]; [9],100
same,"Plant response rating (0 to 100), Nutsedge, Yellow",yellow nutsedge; [5],5
same,"Nutsedge, Yellow plant response rating",yellow nutsedge; [6],5
same,"Plant response rating, Nutsedge, Yellow",yellow nutsedge; [7],5
same,"Plant response rating, Nutsedge, Yellow",yellow nutsedge; [8],5
same,Wheat plant response rating (0 to 100 scale),wheat; 125 g ai/ha,0
same,Wheat plant response rating,wheat; [9],10
same,"Plant response rating (0 to 100), Galium",galium; [5],65
same,Galium plant response rating,galium; [6],70
same,"Plant response rating, Galium",galium; [7],95
same,"Plant response rating, Galium",galium; [8],80
same,"Plant response rating, Rice",rice,35
